Measurements: PMC11247487, “Discovery of Dual MER/AXL Kinase Inhibitors as Bifunctional Small Molecules for Inhibiting Tumor Growth and Enhancing Tumor Immune Microenvironment” (Journal of Medicinal Chemistry, 2024)
Values joined by “and” are separate entries in the source; they are usually repeats but may differ in a detail not shown here. Equal values may be shown once. Read-outs that look alike come from different tables or passages of the source.

Columns and labels:
EGFR^WT = EGFR^WT (Homo sapiens, UniProt P00533); assay: EGFR^WT in-house Kinase-Glo assay; type: biochemical
AXL = biological target: T1, AXL (Homo sapiens, UniProt P30530); assay: AXL enzyme inhibition assay (ADP-Glo); type: biochemical
T1 construct: A purified kinase (MER or AXL) was incubated with a compound or DMSO
T1 sequence (P30530 26-894): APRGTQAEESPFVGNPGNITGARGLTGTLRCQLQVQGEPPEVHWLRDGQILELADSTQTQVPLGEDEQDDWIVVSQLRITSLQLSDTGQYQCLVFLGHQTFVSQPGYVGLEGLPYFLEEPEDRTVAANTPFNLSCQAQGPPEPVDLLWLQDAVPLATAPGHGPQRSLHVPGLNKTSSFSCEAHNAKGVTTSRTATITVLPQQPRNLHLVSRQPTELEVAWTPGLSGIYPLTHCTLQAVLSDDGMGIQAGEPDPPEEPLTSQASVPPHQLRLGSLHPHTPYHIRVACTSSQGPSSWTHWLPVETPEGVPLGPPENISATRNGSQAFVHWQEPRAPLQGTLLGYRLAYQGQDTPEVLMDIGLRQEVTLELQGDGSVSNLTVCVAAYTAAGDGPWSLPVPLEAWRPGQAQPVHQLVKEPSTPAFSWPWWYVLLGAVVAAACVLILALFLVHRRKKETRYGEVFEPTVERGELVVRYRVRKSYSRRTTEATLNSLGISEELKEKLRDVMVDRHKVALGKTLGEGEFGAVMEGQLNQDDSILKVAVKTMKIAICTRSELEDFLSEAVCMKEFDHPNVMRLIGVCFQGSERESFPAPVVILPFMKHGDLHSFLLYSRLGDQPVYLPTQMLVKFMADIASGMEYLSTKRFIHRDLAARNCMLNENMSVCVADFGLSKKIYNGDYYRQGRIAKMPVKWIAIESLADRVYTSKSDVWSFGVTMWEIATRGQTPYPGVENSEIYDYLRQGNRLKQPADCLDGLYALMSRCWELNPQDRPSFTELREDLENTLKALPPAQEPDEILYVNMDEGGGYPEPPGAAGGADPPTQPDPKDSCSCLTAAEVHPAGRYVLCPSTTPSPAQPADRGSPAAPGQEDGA

Ba/F3-MER cells = assay: Cell viability assay (MTS); type: cell-based; settings: 72 h
EGFR^DM (T790M/L858R) = EGFR^DM (T790M/L858R) (Homo sapiens, UniProt P00533, L858R/T790M); assay: EGFR^DM in-house Kinase-Glo assay; type: biochemical
MER = biological target: T2, MER (Homo sapiens, UniProt Q12866); assay: MER enzyme inhibition assay (in-house Kinase-Glo); type: biochemical
T2 construct: A purified kinase (MER or AXL) was incubated with a compound or DMSO
T2 sequence (Q12866 21-999): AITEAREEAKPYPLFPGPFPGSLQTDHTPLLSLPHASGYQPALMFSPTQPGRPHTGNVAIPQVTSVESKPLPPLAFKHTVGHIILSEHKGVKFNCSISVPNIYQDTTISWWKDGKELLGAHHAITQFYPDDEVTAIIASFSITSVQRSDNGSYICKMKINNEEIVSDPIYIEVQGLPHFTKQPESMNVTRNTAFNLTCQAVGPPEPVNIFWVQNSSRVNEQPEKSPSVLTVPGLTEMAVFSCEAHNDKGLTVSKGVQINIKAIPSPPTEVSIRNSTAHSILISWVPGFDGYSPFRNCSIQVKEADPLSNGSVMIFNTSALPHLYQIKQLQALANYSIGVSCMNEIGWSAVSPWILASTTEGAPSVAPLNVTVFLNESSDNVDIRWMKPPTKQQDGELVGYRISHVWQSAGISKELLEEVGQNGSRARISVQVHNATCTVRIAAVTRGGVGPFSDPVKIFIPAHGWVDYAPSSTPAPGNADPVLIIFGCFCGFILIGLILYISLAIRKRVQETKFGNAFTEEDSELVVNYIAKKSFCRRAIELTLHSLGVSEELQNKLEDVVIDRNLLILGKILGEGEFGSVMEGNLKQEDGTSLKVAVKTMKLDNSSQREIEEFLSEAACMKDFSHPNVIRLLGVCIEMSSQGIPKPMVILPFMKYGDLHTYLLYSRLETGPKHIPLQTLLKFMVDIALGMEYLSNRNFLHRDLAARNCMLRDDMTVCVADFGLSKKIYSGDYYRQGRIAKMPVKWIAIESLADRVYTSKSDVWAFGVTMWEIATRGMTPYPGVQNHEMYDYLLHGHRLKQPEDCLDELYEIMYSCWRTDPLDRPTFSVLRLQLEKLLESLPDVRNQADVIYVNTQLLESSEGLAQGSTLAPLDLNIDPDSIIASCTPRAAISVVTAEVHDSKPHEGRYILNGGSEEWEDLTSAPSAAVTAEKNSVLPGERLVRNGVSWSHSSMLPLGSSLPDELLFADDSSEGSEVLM

[1] = In vitro microsomal stability assay; type: in vitro ADME; settings: 1 μM, mouse liver microsomes, percent remaining at 30 min
Procedure: All incubations were initiated with the addition of NADPH-generating system at 37 °C for 30 min. At 0 and the end of incubation, 100 μL of aliquots were taken from the incubation mixture and placed into centrifuge tubes containing 100 μL of ice-cold acetonitrile to terminate the metabolic reaction. The samples were vortexed and centrifuged, and then, the supernatant injected onto LC/MS. Percent of remaining of each compound was calculated by comparing peak areas at 30 min to that at the initiation of incubation.

[2] = In vivo pharmacokinetics study; settings: mice; for clearance at 24 h: read-out: iv CL; for Vd at 24 h: read-out: iv Vss; for iv DNAUC(0–inf) / po DNAUC(0–inf) / po DNCmax: dose-normalized
Procedure: The animal studies were performed according to NHRI institutional animal care and committee-approved procedures. Male ICR mice (25–35 g) were obtained from BioLASCO (Taiwan Co., Ltd., Ilan, Taiwan). […] All samples were analyzed for the parent drug by LC-MS/MS. Plasma concentration data were analyzed with a noncompartmental method.

[3] = male, ICR, mouse, plasma, iv 2 mg/kg
[4] = male, ICR, mouse, plasma, iv 2 mg/kg, read-out: iv T1/2 (converted)
[5] = male, ICR, mouse, plasma, iv 2 mg/kg, po 10 mg/kg
[6] = male, ICR, mouse, plasma, po 10 mg/kg
[7] = male, ICR, mouse, plasma, po 10 mg/kg, read-out: po T1/2 (converted)

| IC50 (Ba/F3-MER cells) | Microsomal stability @ 30 min [1] [%] | clearance at 24 h [2, 3] [mL/min/kg] | half-life at 24 h [2, 4] [h] | Vd at 24 h [2, 3] [L/kg] | iv DNAUC(0–inf) ([2]; iv 2 mg/kg) | EGFR^WT inh. @ 1 μM (EGFR^WT) [%] | AXL inh. @ 1 μM (AXL) [%] | EGFR^DM inh. @ 1 μM (EGFR^DM (T790M/L858R)) [%] | MER inh. @ 1 μM (MER) [%] | Compound | other results |
| --- | --- | --- | --- | --- | --- | --- | --- | --- | --- | --- | --- |
| 8.4 nM and 8.2 nM | – | – | – | – | – | – | – | – | – | Nc1cccc(-c2c(-c3ccccc3)oc3ncnc(Oc4ccc(NC(=O)c5cccn(-c6ccc(F)cc6)c5=O)cc4)c23)c1 [Compound 17, N-(4-{[5-(3-Aminophenyl)-6-phenylfuro[5,4-d]pyrimidin-4-yl]oxy}phenyl)-1-(4-fluorophenyl)-2-oxo-1,2-dihydropyridine-3-carboxamide] | inhibition at 1 µM (EGFR^WT; read-out: EGFR^WT inh. @ 1 μM): 1%; inhibition at 1 µM (AXL; read-out: AXL inh. @ 1 μM): 100%; inhibition at 1 µM (EGFR^DM (T790M/L858R); read-out: EGFR^DM inh. @ 1 μM): -1%; inhibition at 1 µM (MER; read-out: MER inh. @ 1 μM): 70% |
| 1 nM | 91 | 20.5 | 12.7 | 10.5 | 766.5 ng·h/mL | – | – | – | – | CC(=O)Nc1cccc(-c2c(-c3cnn(C)c3)oc3ncnc(Oc4ccc(NC(=O)c5cccn(-c6ccc(F)cc6)c5=O)cc4)c23)c1 [Compound 28, N-[4-({5-[3-(Acetylamino)phenyl]-6-(1-methyl-1H-pyrazol-4-yl)furo[2,3-d]pyrimidin-4-yl}oxy)phenyl]-1-(4-fluorophenyl)-2-oxo-1,2-dihydropyridine-3-carboxamide] | – |
| 1.2 nM | 100 | 5.3 | 8.5 | 1.3 | 3,330.5 ng × hr/mL | – | – | – | – | CNc1cccc(-c2c(-c3cnn(C)c3)oc3ncnc(Oc4ccc(NC(=O)c5cccn(-c6ccc(F)cc6)c5=O)cc4)c23)c1 [Compound 29, 1-(4-Fluorophenyl)-N-[4-({5-[3-(methylamino)phenyl]-6-(1-methyl-1H-pyrazol-4-yl)furo[2,3-d]pyrimidin-4-yl}oxy)phenyl]-2-oxo-1,2-dihydropyridine-3-carboxamide] | bioavailability at 24 h [2, 5]: 0.5%; Tmax at 24 h [2, 6]: 24 h; po DNAUC(0–inf) ([2]; po 10 mg/kg): 15.3 ng·h/mL; po DNCmax ([2]; po 10 mg/kg): 1.4 ng/mL |
| 7.6 nM | 77 | 35.1 | 6.3 | 9.9 | 483.0 ng·h/mL | – | – | – | – | Cn1cc(-c2oc3ncnc(Oc4ccc(NC(=O)c5cccn(-c6ccc(F)cc6)c5=O)cc4)c3c2-c2cccc(CN)c2)cn1 [Compound 31, N-[4-({5-[3-(Aminomethyl)phenyl]-6-(1-methyl-1H-pyrazol-4-yl)furo[2,3-d]pyrimidin-4-yl}oxy)phenyl]-1-(4-fluorophenyl)-2-oxo-1,2-dihydropyridine-3-carboxamide] | – |
| 8.4 nM | 83 | 42.9 | 6.7 | 14.2 | 454.5 ng·h/mL | – | – | – | – | Cn1cc(-c2oc3ncnc(Oc4ccc(NC(=O)c5cccn(-c6ccc(F)cc6)c5=O)cc4)c3c2-c2cccc(N3CCNCC3)c2)cn1 [Compound 34, 1-(4-Fluorophenyl)-N-[4-({6-(1-methyl-1H-pyrazol-4-yl)-5-[3-(piperazin-1-yl)phenyl]furo[2,3-d]pyrimidin-4-yl}oxy)phenyl]-2-oxo-1,2-dihydropyridine-3-carboxamide] | IC50 (AXL): 12.1 nM; IC50 (MER): 2.1 nM; bioavailability at 24 h [2, 5]: 0.6%; Tmax [2, 6]: 2.2 h; half-life at 24 h [2, 7]: 4.7 h; po DNAUC(0–inf) ([2]; po 10 mg/kg): 2.6 ng·h/mL; po DNCmax ([2]; po 10 mg/kg): 0.7 ng/mL |
| – | 67 | 84 | 11.2 | 8 | 208.0 ng·h/mL | – | – | – | – | CN(C)Cc1ccc(-c2c(-c3cnn(C)c3)oc3ncnc(Oc4ccc(NC(=O)c5cccn(-c6ccc(F)cc6)c5=O)cc4)c23)cc1 [Compound 39, N-{4-[(5-{4-[(Dimethylamino)methyl]phenyl}-6-(1-methyl-1H-pyrazol-4-yl)furo[2,3-d]pyrimidin-4-yl)oxy]phenyl}-1-(4-fluorophenyl)-2-oxo-1,2-dihydropyridine-3-carboxamide] | bioavailability [2, 5]: > 20%; bioavailability at 24 h [2, 5]: 26.2%; Tmax at 24 h [2, 6]: 2 h; half-life at 24 h [2, 7]: 2.4 h; po DNAUC(0–inf) ([2]; po 10 mg/kg): 54.4 ng·h/mL; po DNCmax ([2]; po 10 mg/kg): 5.7 ng/mL |
| 1140 nM | – | – | – | – | – | 1 | 95 | −6 | 9 | (4-{[5-(3-Aminophenyl)-6-phenylfuro[5,4-d]pyrimidin-4-yl]oxy}phenyl)-N-(phenylacetyl)carbamothioic amide [Compound 16] | – |
| 3630 nM | – | – | – | – | – | 4 | 53 | 1 | 4 | N^1-(4-Fluorophenyl)-N^1-{4-[(6-phenylfuro[2,3-d]pyrimidin-4-yl)oxy]phenyl}cyclopropane-1,1-dicarboxamide [Compound 14] | – |
| 658 nM | – | – | – | – | – | 3 | 98 | 2 | 41 | N^1-{4-[(5,6-Diphenylfuro[2,3-d]pyrimidin-4-yl)oxy]phenyl}-N^1-(4-fluorophenyl)cyclopropane-1,1-dicarboxamide [Compound 13] | – |

| Compound | IC50 (Ba/F3-MER cells) | Microsomal stability @ 30 min [1] [%] | clearance at 24 h [2, 3] [mL/min/kg] | half-life at 24 h [2, 4] [h] | Vd at 24 h [2, 3] [L/kg] | iv DNAUC(0–inf) ([2]; iv 2 mg/kg) | EGFR^WT inh. @ 1 μM (EGFR^WT) [%] | AXL inh. @ 1 μM (AXL) [%] | EGFR^DM inh. @ 1 μM (EGFR^DM (T790M/L858R)) [%] | MER inh. @ 1 μM (MER) [%] | other results |
| --- | --- | --- | --- | --- | --- | --- | --- | --- | --- | --- | --- |
| N^1-(4-{[5-(3-Aminophenyl)-6-phenylfuro[2,3-d]pyrimidin-4-yl]amino}phenyl)-N^1-(4-fluorophenyl)cyclopropane-1,1-dicarboxamide [Compound 15] | 713 nM | – | – | – | – | – | 1 | 92 | −4 | 19 | – |
| N^1-(4-{[5-(3-Aminophenyl)-6-phenylfuro[2,3-d]pyrimidin-4-yl]oxy}phenyl)-N^1-(4-fluorophenyl)cyclopropane-1,1-dicarboxamide [Compound 12] | 73.6 nM | – | – | – | – | – | 0 | 100 | −9 | 71 | – |
